From patent US20050282755A1, “Compositions having antimicrobial activity and uses thereof” (priority 2004, published 2005)
In brackets after ≈: the same amount, converted by molar mass. Starred links: 1 amine or outer side, 2 acyl side, 3 side chain; linkers in the order of their positions; H or OH if unused. Non-standard residues stand in square brackets, D forms with d. Residues, ends and D or L forms follow the SMILES beside them. *: point of attachment. Ethylenediamine = C(CN[*:2])N[*:1]; Lauroyl = CCCCCCCCCCCC(=O)*; Decanoyl = CCCCCCCCCC(=O)*; Octanoyl = CCCCCCCC(=O)*; βAla = NCCC(=O)O

Assays:
[1] = test system: Salmonella dublin (Lane); experiment: MIC, NCCLS M7-A6 broth microdilution (Table 9, no superscript); format: cell-based
Experimental: (§1) Cation-adjusted Mueller Hinton broth was used in the broth microdilution method. In brief, a log-phase bacterial suspension was used to inoculate wells of a 96-well plate so that the final inoculum for each well contained 5×10^5 to 1×10^6 CFU/milliliter. […] Plates were incubated overnight at 37° C. The lowest concentration of peptide that contained no visible growth as evidenced by a lack of turbidity when compared to the control (no peptide) was determined as the MIC. Unless otherwise noted, MIC values listed in Table 9 utilized this method of MIC determination.

[2] = test system: Staphylococcus aureus ATCC 29213; experiment: MIC, NCCLS M7-A6 broth microdilution, cation-adjusted Mueller Hinton broth (Table 9, no superscript); format: cell-based; details: ATCC 29213
Experimental: as §1

MIC S. dublin [1] [µg/mL]	MIC S. aureus [2] [µg/mL]	SMILES
2 (≈ 1.04 µM)	2 (≈ 1.04 µM)	CCCCCCCCCC(=O)NCCNC(=O)[C@H](CCCNC(=N)N)NC(=O)[C@H](CC(C)C)NC(=O)[C@H](Cc1ccccc1)NC(=O)[C@H](CC(N)=O)NC(=O)[C@H](CCCNC(=N)N)NC(=O)[C@H](C)NC(=O)[C@@H](NC(=O)[C@H](CC(=O)O)NC(=O)[C@H](CCCNC(=N)N)NC(=O)[C@H](Cc1c[nH]c2ccccc12)NC(=O)[C@H](CCCNC(=N)N)NC(=O)[C@H](CO)NC(=O)[C@@H](N)CCCNC(=N)N)C(C)C [Peptide 170, H2N-RSRWRDVARNFLR-Ethylamidodecanyl] (H-RSRWRDVARNFLR-{Ethylenediamine-Decanoyl}; C-terminus assumed)
>64	>64	CSCC[C@H](NC(=O)[C@H](Cc1ccccc1)NC(=O)[C@H](CC(N)=O)NC(=O)[C@H](CCCNC(=N)N)NC(=O)[C@H](CO)NC(=O)[C@H](Cc1c[nH]c2ccccc12)NC(=O)[C@H](CC(=O)O)NC(=O)[C@H](CCCNC(=N)N)NC(=O)[C@H](Cc1c[nH]c2ccccc12)NC(=O)[C@H](CCCNC(=N)N)NC(=O)[C@H](CO)NC(=O)[C@H](CCCNC(=N)N)NC(=O)CNC(=O)[C@@H](NC(=O)[C@H](CCCNC(=N)N)NC(=O)[C@H](CO)NC(=O)[C@@H](NC(=O)[C@H](CCCNC(=N)N)NC(=O)[C@@H](NC(C)=O)[C@@H](C)O)C(C)C)[C@@H](C)O)C(=O)N[C@@H](CCCNC(=N)N)C(=O)N[C@@H](C)C(=O)N[C@@H](C)C(=O)N[C@@H](CCCNC(=N)N)C(=O)N[C@@H](CCCNC(=N)N)C(=O)N[C@@H](CCCNC(=N)N)C(=O)N[C@@H](CCCNC(=N)N)C(N)=O [Peptide 9] (Ac-TRVSRTGRSRWRDWSRNFMRAARRRR-NH2)
32 (≈ 11.1 µM)	>64	CSCC[C@H](NC(=O)[C@H](Cc1ccccc1)NC(=O)[C@H](CC(N)=O)NC(=O)[C@H](CCCNC(=N)N)NC(=O)[C@H](CO)NC(=O)[C@H](Cc1c[nH]c2ccccc12)NC(=O)[C@H](CC(=O)O)NC(=O)[C@H](CCCNC(=N)N)NC(=O)[C@H](Cc1c[nH]c2ccccc12)NC(=O)[C@H](CCCNC(=N)N)NC(=O)[C@H](CO)NC(=O)[C@H](CCCNC(=N)N)NC(=O)CNC(=O)[C@@H](NC(=O)[C@H](CCCNC(=N)N)NC(=O)[C@H](CO)NC(=O)[C@@H](NC(=O)[C@H](CCCNC(=N)N)NC(=O)[C@@H](NC(C)=O)[C@@H](C)O)C(C)C)[C@@H](C)O)C(=O)N[C@@H](CCCNC(=N)N)C(=O)N[C@@H](CC(C)C)C(=O)N[C@@H](CC(C)C)C(N)=O [Peptide 19] (Ac-TRVSRTGRSRWRDWSRNFMRLL-NH2)
>64	>64	CCCCCCCCCCCC(=O)N[C@@H](CCCNC(=N)N)C(=O)N[C@@H](CC(=O)O)C(=O)N[C@H](C(=O)N[C@@H](C)C(=O)N[C@@H](CCCNC(=N)N)C(=O)N[C@@H](CC(N)=O)C(=O)N[C@@H](Cc1ccccc1)C(N)=O)C(C)C [Peptide 107, Lauryl-RDVARNF-NH2] (Lauroyl-RDVARNF-NH2)
32 (≈ 8.58 µM)	64 (≈ 17.2 µM)	CSCC[C@H](NC(=O)[C@H](Cc1ccccc1)NC(=O)[C@H](CC(N)=O)NC(=O)[C@H](CCCNC(=N)N)NC(=O)[C@H](CO)NC(=O)[C@H](Cc1c[nH]c2ccccc12)NC(=O)[C@H](CC(=O)O)NC(=O)[C@H](CCCNC(=N)N)NC(=O)[C@H](Cc1c[nH]c2ccccc12)NC(=O)[C@H](CCCNC(=N)N)NC(=O)[C@H](CO)NC(=O)[C@H](CCCNC(=N)N)NC(=O)CNC(=O)[C@@H](NC(=O)[C@H](CCCNC(=N)N)NC(=O)[C@H](CO)NC(=O)[C@@H](NC(=O)[C@H](CCCNC(=N)N)NC(=O)[C@@H](NC(C)=O)[C@@H](C)O)C(C)C)[C@@H](C)O)C(=O)N[C@@H](CCCNC(=N)N)C(=O)N[C@@H](C)C(=O)N[C@@H](C)C(=O)N[C@@H](CCCNC(=N)N)C(=O)N[C@@H](CCCNC(=N)N)C(=O)N[C@@H](CCCNC(=N)N)C(=O)N[C@@H](CCCNC(=N)N)C(=O)N[C@@H](CCCNC(=N)N)C(=O)N[C@@H](CCCNC(=N)N)C(N)=O [Peptide 11] (Ac-TRVSRTGRSRWRDWSRNFMRAARRRRRR-NH2)
>64	32 (≈ 17.1 µM)	CCCCCCCC(=O)N[C@@H](CCCNC(=N)N)C(=O)N[C@@H](CO)C(=O)N[C@@H](CCCNC(=N)N)C(=O)N[C@@H](Cc1c[nH]c2ccccc12)C(=O)N[C@@H](CCCNC(=N)N)C(=O)N[C@@H](CC(=O)O)C(=O)N[C@H](C(=O)N[C@@H](C)C(=O)N[C@@H](CCCNC(=N)N)C(=O)N[C@@H](CC(N)=O)C(=O)N[C@@H](Cc1ccccc1)C(=O)N[C@@H](CCSC)C(=O)N[C@@H](CCCNC(=N)N)C(N)=O)C(C)C [Peptide 203, Octyl-RSRWRDVARNFMR-NH2] (Octanoyl-RSRWRDVARNFMR-NH2)
64 (≈ 17.9 µM)	>64	CSCC[C@H](NC(=O)[C@H](Cc1ccccc1)NC(=O)[C@H](CC(N)=O)NC(=O)[C@H](CCCNC(=N)N)NC(=O)[C@H](CO)NC(=O)[C@H](Cc1c[nH]c2ccccc12)NC(=O)[C@H](CC(=O)O)NC(=O)[C@H](CCCNC(=N)N)NC(=O)[C@H](Cc1c[nH]c2ccccc12)NC(=O)[C@H](CCCNC(=N)N)NC(=O)[C@H](CO)NC(=O)[C@H](CCCNC(=N)N)NC(=O)CNC(=O)[C@@H](NC(=O)[C@H](CCCNC(=N)N)NC(=O)[C@H](CO)NC(=O)[C@@H](NC(=O)[C@H](CCCNC(=N)N)NC(=O)[C@@H](NC(C)=O)[C@@H](C)O)C(C)C)[C@@H](C)O)C(=O)N[C@@H](CCCNC(=N)N)C(=O)N[C@@H](C)C(=O)N[C@@H](C)C(=O)N[C@@H](CCCNC(=N)N)C(=O)N[C@@H](CCCNC(=N)N)C(=O)N[C@@H](CCCNC(=N)N)C(=O)N[C@@H](CCCNC(=N)N)C(=O)N[C@@H](CCCNC(=N)N)C(N)=O [Peptide 10] (Ac-TRVSRTGRSRWRDWSRNFMRAARRRRR-NH2)
16 (≈ 7.29 µM)	8 (≈ 3.64 µM)	CCCCCCCCCCCC(=O)NCCNC(=O)C[C@H](CCCNC(=N)N)NC(=O)C[C@H](CC(C)C)NC(=O)C[C@H](Cc1ccccc1)NC(=O)C[C@H](CCCNC(=N)N)NC(=O)C[C@H](CC(N)=O)NC(=O)C[C@@H](NC(=O)C[C@H](CCCNC(=N)N)NC(=O)C[C@H](CC(=O)O)NC(=O)C[C@@H](NC(=O)C[C@H](CCCNC(=N)N)NC(=O)C[C@H](CO)NC(=O)C[C@H](Cc1c[nH]c2ccccc12)NC(=O)C[C@@H](N)CCCNC(=N)N)[C@@H](C)CC)[C@@H](C)CC [Peptide 216, H2N-RWSRIDRINRFLR-Ethylamidolauryl all amino acids are beta3]
>64	>64	CSCC[C@H](NC(=O)[C@H](Cc1ccccc1)NC(=O)[C@H](CC(N)=O)NC(=O)[C@H](CCCNC(=N)N)NC(=O)[C@H](CO)NC(=O)[C@H](Cc1c[nH]c2ccccc12)NC(=O)[C@H](CC(=O)O)NC(=O)[C@H](CCCNC(=N)N)NC(=O)[C@H](Cc1c[nH]c2ccccc12)NC(=O)[C@H](CCCNC(=N)N)NC(=O)[C@H](CO)NC(=O)[C@H](CCCNC(=N)N)NC(=O)CNC(=O)[C@@H](NC(=O)[C@H](CCCNC(=N)N)NC(=O)[C@H](CO)NC(=O)[C@@H](NC(=O)[C@H](CCCNC(=N)N)NC(=O)[C@@H](NC(=O)CCN)[C@@H](C)O)C(C)C)[C@@H](C)O)C(=O)N[C@@H](CCCNC(=N)N)C(=O)N[C@@H](C)C(=O)N[C@@H](C)C(N)=O [Peptide 18] (H-[βAla]TRVSRTGRSRWRDWSRNFMRAA-NH2)
